{"source": "patent US20230019491A1", "about": "“PYRIMIDINE TBK/IKKe INHIBITOR COMPOUNDS AND USES THEREOF” (Merck Patent GmbH, priority 2017, published 2023)", "key": {"IKKε": {"molecular_target": "T1, IKKε (Homo sapiens, UniProt Q14164)", "T1 sequence (Q14164 1-716)": "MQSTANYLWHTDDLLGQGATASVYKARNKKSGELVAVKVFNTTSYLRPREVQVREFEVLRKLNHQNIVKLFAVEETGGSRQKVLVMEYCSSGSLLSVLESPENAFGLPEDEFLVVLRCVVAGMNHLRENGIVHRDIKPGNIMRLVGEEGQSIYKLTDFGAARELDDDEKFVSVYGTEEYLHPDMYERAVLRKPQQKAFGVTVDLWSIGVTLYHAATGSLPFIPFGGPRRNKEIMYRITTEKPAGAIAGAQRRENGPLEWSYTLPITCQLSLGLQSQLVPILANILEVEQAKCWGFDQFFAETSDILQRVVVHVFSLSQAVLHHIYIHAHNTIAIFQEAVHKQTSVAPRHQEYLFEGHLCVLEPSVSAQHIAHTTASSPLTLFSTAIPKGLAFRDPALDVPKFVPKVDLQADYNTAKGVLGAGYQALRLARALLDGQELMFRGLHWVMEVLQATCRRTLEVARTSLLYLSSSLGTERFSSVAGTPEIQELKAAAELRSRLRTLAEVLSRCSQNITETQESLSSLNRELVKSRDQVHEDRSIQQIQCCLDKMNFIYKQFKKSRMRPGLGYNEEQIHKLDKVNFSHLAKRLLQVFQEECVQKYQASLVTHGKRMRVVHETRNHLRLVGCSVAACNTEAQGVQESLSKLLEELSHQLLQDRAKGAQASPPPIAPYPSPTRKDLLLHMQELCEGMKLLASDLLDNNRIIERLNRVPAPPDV", "assay": "IKKε biochemical assay", "conditions": "10 point 1:4 dose response, 30 uM top concentration, 90 min at 25° C., LabChip EZ Reader II; read-out: IKKε_IC50", "in_short": "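Compounds in 1% DMSO final were incubated with IKKε enzyme and substrate at 25° C. for 90 min, then stopped. Substrate and product peaks were resolved by LabChip EZ Reader II mobility-shift read-out. Staurosporine at 10 uM final served as the full-inhibition control.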"}, "TBK1": {"molecular_target": "T2, TBK1 (Homo sapiens, UniProt Q9UHD2)", "T2 sequence (Q9UHD2 1-729)": "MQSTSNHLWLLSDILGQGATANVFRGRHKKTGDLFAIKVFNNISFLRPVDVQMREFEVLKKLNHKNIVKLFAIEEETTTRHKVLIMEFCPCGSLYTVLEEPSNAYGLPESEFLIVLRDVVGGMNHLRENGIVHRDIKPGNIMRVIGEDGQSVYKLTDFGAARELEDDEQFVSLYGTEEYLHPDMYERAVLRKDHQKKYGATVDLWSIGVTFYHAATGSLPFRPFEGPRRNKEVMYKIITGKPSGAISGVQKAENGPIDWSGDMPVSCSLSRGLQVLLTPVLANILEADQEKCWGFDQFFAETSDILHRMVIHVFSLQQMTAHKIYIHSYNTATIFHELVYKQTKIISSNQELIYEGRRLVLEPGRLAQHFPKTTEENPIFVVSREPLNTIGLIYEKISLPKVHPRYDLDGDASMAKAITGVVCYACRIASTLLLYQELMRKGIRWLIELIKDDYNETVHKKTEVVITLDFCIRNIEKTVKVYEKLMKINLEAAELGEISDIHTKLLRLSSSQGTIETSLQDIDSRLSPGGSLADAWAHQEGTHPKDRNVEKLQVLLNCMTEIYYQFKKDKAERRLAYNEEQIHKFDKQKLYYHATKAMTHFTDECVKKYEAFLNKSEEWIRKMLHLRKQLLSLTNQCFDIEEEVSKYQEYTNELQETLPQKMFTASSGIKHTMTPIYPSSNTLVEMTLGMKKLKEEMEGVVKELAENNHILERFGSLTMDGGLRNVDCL", "assay": "TBK biochemical assay", "conditions": "10 point 1:4 dose response, 30 uM top concentration, 90 min at 25° C., LabChip EZ Reader II; read-out: TBK1_IC50", "in_short": "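Substrate and product were separated and quantified by microfluidic mobility-shift read (LabChip). 10 uM staurosporine served as the full-inhibition control, and the reference compound was tested from 1 uM final.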"}}}
{"substance": "tert-butyl 4-[2-cyano-5-methyl-4-[2-([4-[4-(oxetan-3-yl)piperazin-1-yl]phenyl]amino)pyrimidin-4-yl]phenoxy]-3,3-difluoropiperidine-1-carboxylate [Example 308]", "values": [{"measurement": "IC50", "setting": "IKKε", "result": "< 100", "unit": "nM"}, {"measurement": "IC50", "setting": "TBK1", "result": "< 100", "unit": "nM"}]}
